# Assays:
# L-selectin = settings: compared with sLe^x; cited from earlier work
# [1] = system: hatched mouse blastocysts; assay: Binding of selectin ligand-coated beads to hatched mouse blastocysts under shear stress; type: cell-based; settings: neoglycolipid-coated 4-μm polystyrene beads
# [2] = system: explants of the human chorionic villous tree (trophoblast L-selectin); assay: Binding of selectin ligand-coated beads to first-trimester villous explant cultures under shear stress; type: cell-based; settings: neoglycolipid-coated beads; cytotrophoblast column remnants and syncytiotrophoblasts
# Procedure: Neoglycolipids were prepared by reductive amination of dipalmitoyl phosphatidylacetaldehyde with the aminoethyl glycoside of either sLe^x or 6-sulfo sLe^x 30 and dissolved in methanol (1 μg/μl). Blue 4-μm polystyrene latex beads (Interfacial Dynamics Corporation) were washed three times with ethanol, then resuspended in this solvent (1.2×10^8 beads/200 μl). Twenty-five micrograms of glycolipid was added, and the mixture was evaporated under nitrogen. Coated beads were washed three times in 1% BSA/PBS, then incubated with 3% BSA/PBS (2 h, room temperature). The beads were resuspended in 1 ml of 1% BSA/culture medium. Control beads were coated with phosphatidyl choline or used without coating.
# Forty-eight first-trimester villous explant cultures were established (4 from 12 placentas; 2 experiments). After 24 h, the culture medium was removed, and 200 μl of a suspension of 2.4×10^7 beads in medium was added. Six explants were incubated with either experimental or control beads. Six other explants were pre-incubated with DREG-56 (30 min), then washed three times with medium before adding 6-sulfo sLe^x-coated beads. The explants were placed inside an incubator on a platform shaker (1 h; 20 cycles/min). Afterwards, bead suspensions were aspirated and explants were fixed in 3.8% paraformaldehyde (1 h, room temperature), washed three times in PBS (4° C.), and examined with a stereomicroscope. […]
binding of ligand-coated beads to hatched mouse blastocysts [1],binding of ligand-coated beads to human villus explants / trophoblasts [2],Compound,"tightness of L-selectin binding, 6-sulfo sLe^x versus sLe^x (L-selectin)"
bound,bound,Siaα2→3Galβ1→4[Fucα1→3][SO3→6]GlcNAc [6-sulfo sLe^x],more tightly
bound,in fewer numbers,"CC(=O)NC1C(O)CC(OC2C(O)C(CO)OC(OC3C(CO)OC(O)C(NC(C)=O)C3OC3OC(C)C(O)C(O)C3O)C2O)(C(=O)O)OC1C(O)C(O)CO (centres unmarked) [sLe^x, Siaα2→3Galβ1→4[Fucα1→3]GlcNAc]",–

# From patent US7175990B2, “Method of determining endometrial receptivity” (The Regents of the University of California, priority 2002, dated 2007)
